In article PMC9396645 (Frontiers in Chemistry, 2022):

Test system: C4-2 cells
Assay: Internalization efficiency / specific cell uptake in C4-2 cells
Format: cell-based, human
Conditions: ^68Ga-labeled compounds 30 nM, 45 min, 37°C, specificity by 2-PMPA 500 μM, mean ± SD (n = 3)
Protocol: The specific internalization ratio was determinated in 24-well plates. The plates were previously coated with 0.1% poly-L-lysine in PBS for 20 min and washed with PBS once. C4-2 cells (10^5 cells per analysis) were added to each well and equilibrated overnight. The cells were incubated for 45 min with 250 µL of a 30 nM solution of the ^68Ga-labeled compounds either in a water bath at 37°C or on ice. The PSMA-receptor-blocking agent 2-(phosphonomethyl)pentanedioic acid (2-PMPA; 500 μM; Axxora) was used to verify the specificity of the cellular uptake of the novel compounds. The cells were washed thrice (using 1 ml of ice-cold PBS), followed by an incubation with 0.5 ml of a glycine solution (50 mM in HCl at a pH of 2.8) for 5 min, washed once with 1 ml of ice-cold PBS, and finally lysed with 0.5 ml of 0.3 M NaOH. The lysate was collected, and the radioactivity was measured in a gamma-counter. Triplicate measurements were performed for all experiments.

O=C([O-])CN1CCN(CC(=O)[O-])CCN(Cc2ccc(C(=O)NCC3CCC(C(=O)NC(Cc4ccc5ccccc5c4)C(=O)NCCCCC(NC(=O)NC(CCC(=O)O)C(=O)O)C(=O)O)CC3)cc2)CCN(CC(=O)[O-])CC1.[68Ga+3] (stereo not shown) [^68Ga-CA028]
Specific lysate (internalization): 41.2 ± 2.7 %IA/10^6 cells
